Test results reported in ChEMBL document CHEMBL1649341, “Citrusosides A-D and furanocoumarins with cholinesterase inhibitory activity from the fruit peels of Citrus hystrix” (J Nat Prod, 2010).
Activity calls are given as the source filed them. The rule behind the calls is not given here.

Key:
Cholinesterase = Cholinesterase (Equus caballus, UniProt P81908); assay: Inhibition of horse serum BChE after 2 mins by Ellman's reaction
[1] = target: Cholinesterase (Equus caballus) (UniProt P81908); assay: Inhibition of horse serum BChE at 14.8 mM after 2 mins by Ellman's reaction
[2] = target: Cholinesterase (Equus caballus) (UniProt P81908); assay: Inhibition of horse serum BChE at 65.1 uM after 2 mins by Ellman's reaction
[3] = target: Cholinesterase (Equus caballus) (UniProt P81908); assay: Inhibition of horse serum BChE at 7.2 mM after 2 mins by Ellman's reaction

Cholinesterase (Equus caballus), sequence (P81908 whole entry): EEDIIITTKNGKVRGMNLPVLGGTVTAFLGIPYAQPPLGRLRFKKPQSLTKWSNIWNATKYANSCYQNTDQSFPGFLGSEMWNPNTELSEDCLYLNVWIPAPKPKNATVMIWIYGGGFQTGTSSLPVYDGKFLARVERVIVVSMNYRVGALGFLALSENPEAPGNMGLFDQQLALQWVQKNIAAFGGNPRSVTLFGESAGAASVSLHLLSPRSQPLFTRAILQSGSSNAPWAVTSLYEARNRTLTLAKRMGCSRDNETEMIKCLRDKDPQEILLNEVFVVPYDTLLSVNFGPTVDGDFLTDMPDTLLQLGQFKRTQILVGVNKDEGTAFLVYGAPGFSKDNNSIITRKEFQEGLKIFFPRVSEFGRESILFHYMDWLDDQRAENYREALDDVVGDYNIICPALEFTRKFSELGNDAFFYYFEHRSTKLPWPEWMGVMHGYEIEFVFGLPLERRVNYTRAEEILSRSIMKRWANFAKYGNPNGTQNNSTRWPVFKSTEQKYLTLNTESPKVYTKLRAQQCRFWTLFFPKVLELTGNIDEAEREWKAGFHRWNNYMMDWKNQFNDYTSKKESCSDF
Cholinesterase, sequence (P81908 whole entry): as above

SMILES | IC50 (Cholinesterase) | further results
COC(C)(C)[C@H](O)CC/C(C)=C/COc1c2ccoc2cc2oc(=O)ccc12 | 11.2 µM | –
CC(C)=CCC/C(C)=C/COc1c2ccoc2cc2oc(=O)ccc12 | – | inhibition [1]: inactive
CC(C)(O)[C@H](O)COc1c2ccoc2cc2oc(=O)ccc12 | – | inhibition [2]: 24.6%
C/C(=C\COc1c2ccoc2cc2oc(=O)ccc12)CC[C@@H](OC(=O)CC(C)(O)CC(=O)OC[C@H]1O[C@@H](OC(C)C)[C@H](O)[C@@H](O)[C@@H]1O)C(C)(C)O (stereo partly drawn) [CITRUSOSIDE B] | 339 µM | –
C/C(=C\COc1c2ccoc2cc2oc(=O)ccc12)CC[C@@H](O)C(C)(C)O | 15.4 µM | –
CC(C)O[C@@H]1O[C@H](CO)[C@@H](O)[C@H](OC(=O)CC(C)(O)CC(=O)O[C@H](COc2c3ccoc3cc3oc(=O)ccc23)C(C)(C)O)[C@H]1O (stereo partly drawn) | – | inhibition [3]: inactive
CC(C)=CCC[C@@H](C)C/C=C/C(=O)OC[C@H]1O[C@@H](OC(C)C)[C@H](O)[C@@H](O)[C@@H]1O [CITRUSOSIDE A] | 376 µM | –
CC(C)=CCOc1c2ccoc2cc2oc(=O)ccc12 [ISOIMPERATORIN] | 23.1 µM | –
